Here are results for 29 compounds from US20160200733A1, “SUBSTITUTED THIENO[2,3-B]PYRIDINE-2-CARBOXAMIDE ANALOGS AS POSITIVE ALLOSTERIC MODULATORS OF THE MUSCARINIC ACETYLCHOLINE RECEPTOR M4” (Vanderbilt University, priority 2013, published 2016).

This test concerns the target T1, mAChR hM4 (Homo sapiens, UniProt P08173).
T1 construct: expressed in transfected cells; host or cells: CHO-K1 (Chinese hamster ovary) cells
T1 sequence (P08173 1-479): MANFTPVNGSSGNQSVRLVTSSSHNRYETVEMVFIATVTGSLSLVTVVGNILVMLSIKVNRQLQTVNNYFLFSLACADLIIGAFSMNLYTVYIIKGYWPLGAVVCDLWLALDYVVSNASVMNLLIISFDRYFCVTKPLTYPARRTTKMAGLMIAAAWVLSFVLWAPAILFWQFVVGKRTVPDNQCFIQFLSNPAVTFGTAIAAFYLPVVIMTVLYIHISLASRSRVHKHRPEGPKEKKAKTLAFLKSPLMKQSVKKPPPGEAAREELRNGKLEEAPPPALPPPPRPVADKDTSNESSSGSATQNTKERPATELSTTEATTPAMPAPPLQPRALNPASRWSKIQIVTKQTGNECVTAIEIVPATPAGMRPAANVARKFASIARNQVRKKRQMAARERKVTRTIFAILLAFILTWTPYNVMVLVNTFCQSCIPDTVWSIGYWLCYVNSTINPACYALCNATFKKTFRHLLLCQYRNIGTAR
The test can be described thus: mAChR M4 cell-based functional assay (calcium flux, potentiation of EC20 acetylcholine response). Conditions: mAChR hM4 cell-line; for EC50: >10,000 estimated for low potency compounds lacking a plateau; for Emax at 30 µM: % ACh maximum at 30 μM. The source says: In one aspect, the disclosed compounds potentiate the agonist response (e.g., acetylcholine) of mAChR M4. In a further aspect, the disclosed compounds increase mAChR M4 response to non-maximal concentrations of agonist in the presence of compound compared to the response to agonist in the absence of compound. […] For example, activation of mAChR M4 activity can be determined by measurement of calcium flux in response to agonist, e.g. acetylcholine, in cells loaded with a Ca^2+-sensitive fluorescent dye (e.g., Fluo-4). In a further aspect, the calcium flux was measured as an increase in fluorescent static ratio. In a yet further aspect, positive allosteric modulator activity was analyzed as a concentration-dependent increase in the EC20 acetylcholine response (i.e. the response of mAChR M4 at a concentration of acetylcholine that yields 20% of the maximal response).
In one aspect, the disclosed compounds activate mAChR M4 response as an increase in calcium fluorescence in mAChR M4-transfected CHO-K1 cells in the presence of the compound, compared to the response of equivalent CHO-K1 cells in the absence of the compound. […] In a further aspect, the mAChR M4-transfected CHO-K1 cells are transfected with human mAChR M4. In a still further aspect, the mAChR M4-transfected CHO-K1 cells are transfected with rat mAChR M4.
Substituted 3-aminothieno[2,3-c]pyridine-2-carboxamide analogs were synthesized as described above. Activity (EC50 and Emax) was determined in the mAChR M4 cell-based functional assay as described above, and the data are shown in Table II for assays conducted using mAChR hM4 cell-line. The compound number corresponds to the compound numbers used in Table I.

As a reminder, the EC50 is the concentration needed to bring the measured effect to its halfway point. Usually Emax stands for the greatest response seen or fitted, relative to the assay's reference.

As for `Cc1cc(C)c2c(Br)c(C(=O)NCc3ccc(S(C)(=O)=O)cc3)sc2n1` [Compound 32, 3-bromo-4,6-dimethyl-N-(4-(methylsulfonyl)benzyl)thieno[2,3-b]pyridine-2-carboxamide], the EC50 was greater than 10000 nM.

On to `Cc1cc(C)c2c(C#N)c(C(=O)NCc3ccc(S(C)(=O)=O)cc3)sc2n1` [Compound 33, 3-cyano-4,6-dimethyl-N-(4-(methylsulfonyl)benzyl)thieno[2,3-b]pyridine-2-carboxamide], for which the EC50 is greater than 10000 nM.

As to `Cc1cc(C)c2c(-c3ccccc3)c(C(=O)NCc3ccc(S(C)(=O)=O)cc3)sc2n1` [Compound 34, 4,6-dimethyl-N-(4-(methylsulfonyl)benzyl)-3-phenylthieno[2,3-b]pyridine-2-carboxamide], the EC50 was greater than 10000 nM.

Take `Cc1cc(C)c2cc(C(=O)NCc3ccc(S(C)(=O)=O)cc3)sc2n1` [Compound 35, 4,6-dimethyl-N-(4-(methylsulfonyl)benzyl)thieno[2,3-b]pyridine-2-carboxamide]: the Emax at 30 µM amounted to 41% and the EC50 is greater than 10000 nM.

Take `Cc1cc(C)c2c(-c3cnn(C)c3)c(C(=O)NCc3ccc(S(C)(=O)=O)cc3)sc2n1` [Compound 36, 4,6-dimethyl-3-(1-methyl-1H-pyrazol-4-yl)-N-(4-(methylsulfonyl)benzyl)thieno[2,3-b]pyridine-2-carboxamide]: the half-maximal effective concentration (EC50) was greater than 10000 nM.

For `Cc1cc(C)c2c(Br)c(C(=O)N(C)Cc3ccc(S(C)(=O)=O)cc3)sc2n1` [Compound 37, 3-bromo-N,4,6-trimethyl-N-(4-(methylsulfonyl)benzyl)thieno[2,3-b]pyridine-2-carboxamide], the EC50 was greater than 10000 nM.

`CCc1c(C(=O)NCc2ccc(S(C)(=O)=O)cc2)sc2nc(C)cc(C)c12` [Compound 38, 3-ethyl-4,6-dimethyl-N-(4-(methylsulfonyl)benzyl)thieno[2,3-b]pyridine-2-carboxamide]: the Emax at 30 µM worked out at 67% and the EC50 was 4100 nM.

As to `Cc1nc2sc(C(=O)NCc3ccc4c(c3)OCCO4)c(Br)c2c(C)c1Cl` [Compound 39, 3-bromo-5-chloro-N-((2,3-dihydrobenzo[b][1,4]dioxin-6-yl)methyl)-4,6-dimethylthieno[2,3-b]pyridine-2-carboxamide], the EC50 was greater than 10000 nM.

`COc1ccc(C(C)NC(=O)c2sc3nc(C)c(Cl)c(C)c3c2Br)cc1` (stereo not shown) [Compound 40, 3-bromo-5-chloro-N-(1-(4-methoxyphenyl)ethyl)-4,6-dimethylthieno[2,3-b]pyridine-2-carboxamide]: the EC50 is greater than 10000 nM.

`Cc1nc2sc(C(=O)NC3COC3)c(Br)c2c(C)c1Cl` [Compound 41, 3-bromo-5-chloro-4,6-dimethyl-N-(oxetan-3-yl)thieno[2,3-b]pyridine-2-carboxamide]: the Emax at 30 µM is 84% and the EC50 was 530 nM.

With `Cc1nc2sc(C(=O)NCC3CC3)c(Br)c2c(C)c1Cl` [Compound 42, 3-bromo-5-chloro-N-(cyclopropylmethyl)-4,6-dimethylthieno[2,3-b]pyridine-2-carboxamide], the EC50 was greater than 10000 nM.

Regarding `COc1ccc(CN(C)C(=O)c2sc3nc(C)c(Cl)c(C)c3c2Br)cc1` [Compound 43, 3-bromo-5-chloro-N-(4-methoxybenzyl)-N,4,6-trimethylthieno[2,3-b]pyridine-2-carboxamide], the EC50 was greater than 10000 nM.

As for `Cc1nc2sc(C(=O)NC3CCOC3)c(Br)c2c(C)c1Cl` (stereo not shown) [Compound 44, 3-bromo-5-chloro-4,6-dimethyl-N-(tetrahydrofuran-3-yl)thieno[2,3-b]pyridine-2-carboxamide], the Emax at 30 µM worked out at 54% and the EC50 was 590 nM.

As to `Cc1nc2sc(C(=O)NCc3ccc(S(C)(=O)=O)cc3)c(Br)c2c(C)c1Cl` [Compound 45, 3-bromo-5-chloro-4,6-dimethyl-N-(4-(methylsulfonyl)benzyl)thieno[2,3-b]pyridine-2-carboxamide], the EC50 was greater than 10000 nM.

`Cc1nc2sc(C(=O)NCc3ccc4c(c3)CCO4)c(Br)c2c(C)c1Cl` [Compound 46, 3-bromo-5-chloro-N-((2,3-dihydrobenzofuran-5-yl)methyl)-4,6-dimethylthieno[2,3-b]pyridine-2-carboxamide]: the EC50 is greater than 10000 nM.

Consider `COc1ccc(CNC(=O)c2sc3nc(C)c(Cl)c(C)c3c2Br)cc1` [Compound 47, 3-bromo-5-chloro-N-(4-methoxybenzyl)-4,6-dimethylthieno[2,3-b]pyridine-2-carboxamide], for which the EC50 was greater than 10000 nM.

On to `Cc1nc2sc(C(=O)NC3(C)COC3)c(Br)c2c(C)c1Cl` [Compound 48, 3-bromo-5-chloro-4,6-dimethyl-N-(3-methyloxetan-3-yl)thieno[2,3-b]pyridine-2-carboxamide], for which the Emax at 30 µM turned out to be 54% and the EC50 is 570 nM.

`Cc1nc2sc(C(=O)NC3CC3)c(Br)c2c(C)c1Cl` [Compound 49, 3-bromo-5-chloro-N-cyclopropyl-4,6-dimethylthieno[2,3-b]pyridine-2-carboxamide]: the Emax at 30 µM was determined as 62% and the 50% effective concentration (EC50) was 770 nM.

As for `Cc1nc2sc(C(=O)NCC(C)(C)O)c(C3CC3)c2c(C)c1Cl` [Compound 50, 5-chloro-3-cyclopropyl-N-(2-hydroxy-2-methylpropyl)-4,6-dimethylthieno[2,3-b]pyridine-2-carboxamide], the Emax at 30 µM came to 43% and the EC50 is greater than 10000 nM.

In the case of `Cc1nc2sc(C(=O)NC3CCS(=O)(=O)C3)c(C3CC3)c2c(C)c1Cl` (stereo not shown) [Compound 51, 5-chloro-3-cyclopropyl-N-(1,1-dioxidotetrahydrothiophen-3-yl)-4,6-dimethylthieno[2,3-b]pyridine-2-carboxamide], the EC50 is greater than 10000 nM.

Turning to `Cc1nc2sc(C(=O)NC3CCOC3)c(C3CC3)c2c(C)c1Cl` (stereo not shown) [Compound 52, 5-chloro-3-cyclopropyl-4,6-dimethyl-N-(tetrahydrofuran-3-yl)thieno[2,3-b]pyridine-2-carboxamide], the Emax at 30 µM was 60% and the EC50 is 1600 nM.

`COc1ccc(CNC(=O)c2sc3nc(C)c(Cl)c(C)c3c2C2CC2)cc1` [Compound 53, 5-chloro-3-cyclopropyl-N-(4-methoxybenzyl)-4,6-dimethylthieno[2,3-b]pyridine-2-carboxamide]: the EC50 is greater than 10000 nM.

As for `Cc1nc2sc(C(=O)NC3CC3)c(C3CC3)c2c(C)c1Cl` [Compound 54, 5-chloro-N,3-dicyclopropyl-4,6-dimethylthieno[2,3-b]pyridine-2-carboxamide], the Emax at 30 µM was 50% and the EC50 is 430 nM.

For `Cc1nc2sc(C(=O)NC3COC3)c(C3CC3)c2c(C)c1Cl` [Compound 55, 5-chloro-3-cyclopropyl-4,6-dimethyl-N-(oxetan-3-yl)thieno[2,3-b]pyridine-2-carboxamide], the Emax at 30 µM is 85% and the EC50 is 860 nM.

Take `Cc1nc2sc(C(=O)NC3(C)COC3)c(C3CC3)c2c(C)c1Cl` [Compound 56, 5-chloro-3-cyclopropyl-4,6-dimethyl-N-(3-methyloxetan-3-yl)thieno[2,3-b]pyridine-2-carboxamide]: the Emax at 30 µM is 38% and the EC50 was 1400 nM.

Regarding `Cc1nc2sc(C(=O)NC3CCOC3)c(C)c2c(C)c1Cl` (stereo not shown) [Compound 57, 5-chloro-3,4,6-trimethyl-N-(tetrahydrofuran-3-yl)thieno[2,3-b]pyridine-2-carboxamide], the Emax at 30 µM was found to be 79% and the EC50 is 1200 nM.

With `Cc1nc2sc(C(=O)NC3CCN(C)CC3)c(C)c2c(C)c1Cl` [Compound 58, 5-chloro-3,4,6-trimethyl-N-(1-methylpiperidin-4-yl)thieno[2,3-b]pyridine-2-carboxamide], the EC50 is greater than 10000 nM.

`Cc1nc2sc(C(=O)NC3CCS(=O)(=O)C3)c(C)c2c(C)c1Cl` (stereo not shown) [Compound 59, 5-chloro-N-(1,1-dioxidotetrahydrothiophen-3-yl)-3,4,6-trimethylthieno[2,3-b]pyridine-2-carboxamide]: the Emax at 30 µM was determined as 45% and the EC50 was 950 nM.

Turning to `Cc1nc2sc(C(=O)NC3CC3)c(C)c2c(C)c1Cl` [Compound 60, 5-chloro-N-cyclopropyl-3,4,6-trimethylthieno[2,3-b]pyridine-2-carboxamide], the Emax at 30 µM was 79% and the EC50 is 380 nM.
